In a melting point compilation (Tetko et al.; mined from patent text by program, amines drawn as free bases though some values may be those of a salt) one finds melting point data, which are given here for 89 compounds.

Where only a bound is given, the exact number is not on record here.

With `NC(=O)CNC(=O)c1ccnc(-c2ccc3c(c2)C(c2ccc(Cl)cc2Cl)CC3)c1` (centres undefined), the melting point fell in the range of 168 to 170 °C.
The value for `O=C(NCc1ccccc1)c1ccnc(NC(=O)c2ccc(F)cc2)c1` was 170 to 171 °C; that for `Cn1cc(-c2cccc(N3CCc4c(sc5c4CCCC5)C3=O)c2CO)cc(Nc2ccc(C3CNC3)cn2)c1=O` was 140 to 142 °C.
As for `COC(=O)c1c(O)cc(C(F)(F)F)nc1C(F)(F)F`, the melting point lay in the range of 62 to 75 °C.
The value for `CC1(C)COS(=O)Oc2ccc(C#N)cc21` (centres undefined) was 87 to 88 °C.
The result for `COC(=O)Nc1nc2cc(C3(c4ccccc4)OCC(C)(C)CO3)ccc2[nH]1` reads 224 °C.
As to `Cc1ccc(C(C)N(O)C(N)=S)s1` (centres undefined), the melting point came to 155 °C.
The value for `CCOc1ccc(Nc2n[nH]c3ncnc(Nc4cccc(Cl)c4)c23)cc1` was 232 to 233 °C; that for `CC(=Cc1ccc(Br)cc1)c1ccc2c(C)c(C)c(C)c(C)c2c1` was 133 to 136 °C; that for `Cc1noc(-c2ccccc2)c1-c1ccc(S(C)(=O)=O)cc1` was 144 to 145 °C.
As for `CCCCCC(=O)Nc1ccc2ccn(CCCCCCC(=O)NS(=O)(=O)c3ccccc3)c2c1`, the melting point fell in the range of 97 to 99 °C.
`O=C(OC(c1ccccc1)c1ccccc1)C(OC(=S)n1ccnc1)c1ccccc1` (centres undefined): the melting point is 109 to 110 °C.
The value for `NC(=O)c1c(N)cccc1OCCO` was 149 to 151 °C; that for `CC(C)(C)OCCOc1cc(NC(=O)OC(C)(C)C)c(NC(=O)CC(=O)c2cccc(-n3ccnc3)c2)cc1C#Cc1ccc(F)cc1` was 62 to 65 °C.
The result for `Nc1ccc(Oc2ccccc2)c(Cl)c1` reads 31 to 33 °C; that for `Cc1cc(OCC(O)CNC(C)C)c2cc(C(=O)N(C)C)[nH]c2c1` (centres undefined), 169 to 171 °C; that for `C=Cn1cc(C(=O)O)c(=O)c2ccc(N3CCN(C)CC3)nc21`, 238 to 239 °C.
With `CCN(C(=O)c1ccc2nonc2c1)C1CCOCC1`, the melting point is 102 to 104 °C.
The result for `NC(=O)NC1COCC1c1ccccc1-n1nc(C(F)(F)F)cc1C(F)(F)F` (centres undefined) reads 198 to 200 °C; that for `COCCN=Cc1cc(OC)c(OC)cc1[N+](=O)[O-]`, 65 to 66 °C; that for `CC(C)(C)OC(=O)c1ccc(Cl)c([N+](=O)[O-])c1`, 66 to 67 °C.
The result for `CC(C(=S)NCN1CCOCC1)c1ccccn1` (centres undefined) reads 69 °C; that for `CCOC(=O)C(C)Oc1ccc(N(C)c2cc3ccc(Cl)cc3c(Cl)n2)cc1` (centres undefined), 86 °C.
The value for `C=CCN(CC=C)Cc1nc(-c2ncn3c2[C@@H]2CCN2C(=O)c2c-3ccc(F)c2Cl)no1` was 103 to 104 °C; that for `O=Cc1ccc(OCc2ccccc2)c2c1OCO2` was 81 to 82 °C; that for `CCC(C)c1ccc(N(Cc2ccc(C(C)(C)C)cc2)C(=N)N(C)c2ccccc2)cc1` (centres undefined) was 80 to 82 °C.
`CC(N)=CC(=O)c1cccs1` returned a melting point of 170 to 172 °C.
With `CC(C)(C)c1cc(CCc2ccccc2NC(=O)NC2CCCc3ccccc32)cc(C(C)(C)C)c1O` (centres undefined), the melting point lay within 168 to 169 °C.
As to `CCCn1c(=O)c2c(nc(/C=C/c3ccc4c(c3)OCCO4)n2C)n(CCC)c1=O`, the melting point was found to be 182 °C.
The value for `COc1ccccc1-c1n[nH]c2c(Cl)cc(C)nc12` was 184 to 190 °C; that for `CCCN(C(=S)n1ccnc1)c1ccccc1Cl` was 59 to 61 °C; that for `N#Cc1cc(-c2c(-c3ccccc3)nn3ccccc23)c[nH]c1=O` was 312 to 314 °C.
`Cc1ccsc1C=C1CCc2cc(OCCc3c[nH]cn3)ccc2C1=O`: the melting point was in the range of 191 to 193 °C.
`Cc1cccc(C)c1CNc1cc(C2=NCCN2C)cc2c1nc(C)n2C` displayed a melting point of 118 to 119 °C.
The result for `COC(=O)c1ccc(-c2ccccc2)cc1S(=O)(=O)NC(=O)Nc1nc(OC)cc(OC)n1` reads 204 to 206 °C; that for `COc1ccc(CCNC(=O)Cc2ccc(OC)c(OC)c2)cc1OC`, 125 °C.
The result for `CCOC(=O)C(=O)Nc1ccc(C#N)cc1` reads 188 °C.
The result for `Sc1nnnn1CCCc1ccccc1` reads 75 to 76 °C; that for `Oc1c(CN2CCCC2)cc(Nc2ccnc3cc(Cl)ccc23)cc1CN1CCCC1`, 92 °C.
In the case of `CCCCCCc1ccc(C(=O)Cc2ccc(Br)cc2)cc1`, the melting point was determined as 108 °C.
As for `CCCCCCCCCCCCCCS(=O)(=O)c1cc(S(C)(=O)=O)ccc1-n1oc(C(C)(C)C)c(CCl)c1=O`, the melting point lay in the range of 110 to 111 °C.
The value for `O=C(O)c1cccc(C=CC(=O)N2CCc3c([nH]c4ccccc34)C2c2ccc3c(c2)OCO3)c1` (centres undefined) was 156 to 158 °C; that for `COC(=O)c1c(C)cc(OC)c(C)c1O` was 87 to 90 °C; that for `NC(=O)c1cnn(C2OC(CO)C(O)C2O)n1` (centres undefined) was 150 to 151 °C.
The result for `COC1=C(OC)C(=O)c2cc(NC(C)=O)ccc2C1=O` reads 226 to 228 °C.
The result for `COC(=O)c1cc(C(=O)NNC(C)=O)c2cc(Cc3ccc(F)cc3)cnc2c1O` reads 208 to 209 °C; that for `CCC1c2c(ncn2C)CCN1C(=O)NC(C)C` (centres undefined), 220 °C.
`COc1cccc(CSc2ncccc2C(=O)O)c1` had a melting point of 156 to 157 °C.
The result for `CCc1nc(Cl)c([N+](=O)[O-])c(NC2CC2)n1` reads 61 to 62 °C; that for `CCOC(=O)C1=C(C=O)NC(CF)=C(C(=O)OCC)C1c1cccc([N+](=O)[O-])c1` (centres undefined), 88 to 90 °C.
The value for `CN1C(=O)[C@H](NC(=O)Cc2ccc(C(F)(F)F)cc2)N=C(c2ccccc2)c2ccccc21` was 224 to 226 °C.
The result for `CN1CCN(c2nc3sc4c(NCCCn5ccnc5)ncnc4c3c3c2COC(C)(C)C3)CC1` reads 227 °C; that for `CN(C)CCNc1ccnc2cc3c(cc12)OCO3`, 193 to 194 °C.
Compound `Cn1c2cc(C(F)(F)F)ccc2c2oc(C(=O)Cl)cc21` had a melting point of 155 to 156 °C.
The value for `Cn1c(=O)n(CC(=O)N(CCO)c2ccccc2)c2cnc(-c3ccccc3)nc21` was 231 to 233 °C; that for `O=C1COc2ccc(C3=Nc4cc(Cl)ccc4SC3c3ccccc3)cc2N1` (centres undefined) was 234 to 236 °C.
The value for `O=P1(C2CCCC2)c2ccccc2CN1c1ccccc1` (centres undefined) was 123 to 125 °C; that for `CCCc1nc(S(=O)(=O)N(c2c(Cl)cccc2Cl)S(=O)(=O)c2nc(CCC)n(-c3ccccc3)n2)nn1-c1ccccc1` was 262 to 264 °C; that for `Cc1cc(C)nc(NC(=O)NS(=O)(=O)c2cccc3c2OC(C)(C)C3)n1` was 203 to 206 °C.
With `Cc1nc2ccccc2c(=O)n1CCCOS(C)(=O)=O`, the melting point lay within 148 to 150 °C.
Regarding `NC(=O)c1ccc(F)c(F)c1Cl`, the melting point lay in the range of 142 to 143 °C.
The result for `CC1CCN(C)c2nc3[nH]c(=O)cc(C(F)(F)F)c3cc21` (centres undefined) reads 225 to 230 °C; that for `COc1cc(OC)nc(NC(=O)NS(=O)(=O)c2cc(N)ccc2C(=O)N(C)C)n1`, 192 to 193 °C.
The result for `CCOCc1c2c(cc3c(=O)cc(C(=O)O)oc13)CCCC2` reads 239 °C; that for `Cc1ccc(-c2ccc(S(C)(=O)=O)cc2)n1-c1ccc(Br)cc1`, 200 to 202 °C.
The value for `O=C(O)c1sc(-c2ccc(C(F)(F)F)cc2)nc1C(F)(F)F` was 177 to 179 °C; that for `CCOC(=O)c1c2c(n(CC(N)=O)c1C)C(=O)C(=O)c1ccc(Br)cc1-2` was above 250 °C; that for `O=C1NC(=O)c2c1c(-c1ccccc1)cc1[nH]c3ccc(OP(=O)(OCc4ccccc4)OCc4ccccc4)cc3c21` was 193 to 194 °C.
With `CCOC(=O)CCC(=O)c1ccc(CCNS(=O)(=O)c2cccc(Cl)c2)cc1`, the melting point lay in the range of 64 to 66 °C.
The result for `COc1nc2cc(Cl)c(Cl)c(-n3c(CN(C)C)nnc3-c3cccnc3)c2nc1OC` reads 192 to 194 °C; that for `O=C(Nc1c[nH]nc1C(=O)NCCOc1ccccc1)c1ccccn1`, 182 to 183 °C.
The compound `CC1(S(C)(=O)=O)C(I)=C(S(C)(=O)=O)C=CC1C(=O)O` (centres undefined) came in with a melting point of 66 to 67 °C.
Take `CCNCC1CCN(c2nc3c(cc2F)c(=O)c(C(=O)O)cn3CC)C1` (centres undefined): the melting point is 230 to 232 °C.
The result for `O=C(c1ccc(-c2ccccc2)cc1Cl)N1CCCC(Cc2nnn[nH]2)c2ccccc21` (centres undefined) reads 191 to 194 °C; that for `COc1ccc2cccc(C(C#N)O[Si](C)(C)C)c2c1` (centres undefined), 123 to 125 °C; that for `CN1C(=O)C2(COc3cc4c(cc32)OCCO4)c2c(N3CCOCC3)cccc21` (centres undefined), 246 to 249 °C.
In turn, `CCCOC1CCC(=O)N1` (centres undefined) came in with a melting point of 52 to 54 °C.
The value for `O=c1c2ccccc2ccc2ccc(S(=O)(=O)C(F)(F)F)cc12` was 145 to 149 °C.
`CN1C(=O)C(C)(C)Oc2c(C(=O)O)cc(Cl)cc21` registered a melting point of 235 to 236 °C.
The value for `CCC(CC)NC1=CC(CC(C(=O)OC)C(=O)OC)(Nc2c(C)cc(C)cc2C)NC(C)=C1` (centres undefined) was 136 to 138 °C; that for `Cc1ccccc1Oc1cccc2c1OC(=O)C2(C)C` was 115 to 117 °C.
The value for `CC(=O)Nc1c(C(=O)C2CCCC(C)C2)[nH]c2cc(Cl)ccc12` (centres undefined) was 202 to 203 °C.
The result for `CC(C)CC(=O)OC1c2ccccc2C(=O)N1c1ccc2ccc(Cl)nc2n1` (centres undefined) reads 154 °C; that for `CCCCCCCNC(=O)N(C)c1cccc(-c2ccc(C=C(OC)C(=O)O)cc2)c1`, 114 °C; that for `CC(=O)Nc1ccc(-c2cccc(C3=NC(C)(C)Cc4ccc5c(c43)CC(C)(C)O5)c2)cc1`, 198 to 200 °C.
The compound `c1ccc(Sc2cc(-c3ccccc3)n[nH]2)cc1` returned a melting point of 99 to 100 °C.
The value for `COc1c(C(C)(C)C)cc(C=C2CCON(C)C2=O)cc1C(C)(C)C` was 119 to 121 °C; that for `CC(C)n1nc(O)ccc1=O` was 148 °C; that for `O=C(CCn1cnc2c(=O)[nH]cnc21)NC1CCSC1=O` (centres undefined) was 228 to 230 °C.
